We go through nine compounds from ChEMBL document CHEMBL5465560, “Selectivity Literature for EUbOPEN Chemogenomic Library” (2024).

Experiment [1] addresses MAP kinase-interacting serine/threonine-protein kinase 2 (Homo sapiens, UniProt Q9HBH9). The note with it: at 10 µM.
Experiment [2] has as its target T1, Mitogen-activated protein kinase kinase kinase 7 (Homo sapiens) (UniProt O43318).
T1 sequence (whole entry): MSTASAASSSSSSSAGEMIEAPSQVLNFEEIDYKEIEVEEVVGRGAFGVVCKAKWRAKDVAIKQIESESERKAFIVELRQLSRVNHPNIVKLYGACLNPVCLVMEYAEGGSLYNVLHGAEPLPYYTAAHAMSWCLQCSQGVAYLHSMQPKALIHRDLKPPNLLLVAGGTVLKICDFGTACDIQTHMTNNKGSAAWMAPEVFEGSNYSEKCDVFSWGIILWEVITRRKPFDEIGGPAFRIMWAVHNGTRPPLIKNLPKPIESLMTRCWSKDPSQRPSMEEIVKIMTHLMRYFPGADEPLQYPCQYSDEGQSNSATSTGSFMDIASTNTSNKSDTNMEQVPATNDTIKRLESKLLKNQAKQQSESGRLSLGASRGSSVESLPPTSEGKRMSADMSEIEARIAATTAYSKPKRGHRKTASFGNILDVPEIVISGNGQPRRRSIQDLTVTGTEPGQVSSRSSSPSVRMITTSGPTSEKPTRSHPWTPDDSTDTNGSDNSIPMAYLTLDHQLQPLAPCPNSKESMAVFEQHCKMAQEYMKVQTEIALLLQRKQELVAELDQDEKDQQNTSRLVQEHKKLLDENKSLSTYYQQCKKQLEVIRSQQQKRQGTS
Kind of experiment: Selectivity interaction (KinomeScan (DiscoverX)) EUB0000607a MAP3K7. Particulars: at 10 µM.

Experiment [3] has as its target Serine/threonine-protein kinase 26 (Homo sapiens, UniProt Q9P289). The experiment can be described thus: Selectivity interaction (KinomeScan (DiscoverX)) EUB0000607a STK26. The note with it: at 10 µM.
The target of experiment [4] is Serine/threonine-protein kinase PAK 4 (Homo sapiens, UniProt O96013). Particulars: at 10 µM.
Experiment [5] addresses Tyrosine-protein kinase Fer (Homo sapiens) (UniProt P16591). The experiment can be described thus: Selectivity interaction (Kinase screening (Nanosyn)) EUB0000604a FER.
Experiment [6] concerns the target T2, Tyrosine-protein kinase Tec (Homo sapiens) (UniProt P42680).
T2 sequence (whole entry): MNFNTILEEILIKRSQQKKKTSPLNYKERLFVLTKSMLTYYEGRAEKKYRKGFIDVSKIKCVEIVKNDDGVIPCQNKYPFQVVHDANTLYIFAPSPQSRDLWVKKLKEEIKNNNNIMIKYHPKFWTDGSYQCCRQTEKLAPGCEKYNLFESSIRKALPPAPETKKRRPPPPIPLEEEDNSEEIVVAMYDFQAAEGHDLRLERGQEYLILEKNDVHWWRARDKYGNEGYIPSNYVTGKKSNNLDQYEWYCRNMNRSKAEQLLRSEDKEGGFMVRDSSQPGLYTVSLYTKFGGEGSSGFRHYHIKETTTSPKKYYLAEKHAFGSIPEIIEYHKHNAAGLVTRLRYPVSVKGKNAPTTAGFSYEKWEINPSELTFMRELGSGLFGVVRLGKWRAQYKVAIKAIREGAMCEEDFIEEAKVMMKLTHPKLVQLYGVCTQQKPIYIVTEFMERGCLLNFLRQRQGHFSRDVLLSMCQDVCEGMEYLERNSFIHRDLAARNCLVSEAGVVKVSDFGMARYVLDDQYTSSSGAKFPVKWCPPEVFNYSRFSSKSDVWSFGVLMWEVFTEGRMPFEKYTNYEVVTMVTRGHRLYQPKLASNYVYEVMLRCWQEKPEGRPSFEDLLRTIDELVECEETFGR
The experiment can be described thus: Selectivity interaction (KinomeScan (DiscoverX)) EUB0000045b TEC.

In experiment [7] the target is T3, Serine/threonine-protein kinase Nek5 (Homo sapiens) (UniProt Q6P3R8).
T3 sequence (whole entry): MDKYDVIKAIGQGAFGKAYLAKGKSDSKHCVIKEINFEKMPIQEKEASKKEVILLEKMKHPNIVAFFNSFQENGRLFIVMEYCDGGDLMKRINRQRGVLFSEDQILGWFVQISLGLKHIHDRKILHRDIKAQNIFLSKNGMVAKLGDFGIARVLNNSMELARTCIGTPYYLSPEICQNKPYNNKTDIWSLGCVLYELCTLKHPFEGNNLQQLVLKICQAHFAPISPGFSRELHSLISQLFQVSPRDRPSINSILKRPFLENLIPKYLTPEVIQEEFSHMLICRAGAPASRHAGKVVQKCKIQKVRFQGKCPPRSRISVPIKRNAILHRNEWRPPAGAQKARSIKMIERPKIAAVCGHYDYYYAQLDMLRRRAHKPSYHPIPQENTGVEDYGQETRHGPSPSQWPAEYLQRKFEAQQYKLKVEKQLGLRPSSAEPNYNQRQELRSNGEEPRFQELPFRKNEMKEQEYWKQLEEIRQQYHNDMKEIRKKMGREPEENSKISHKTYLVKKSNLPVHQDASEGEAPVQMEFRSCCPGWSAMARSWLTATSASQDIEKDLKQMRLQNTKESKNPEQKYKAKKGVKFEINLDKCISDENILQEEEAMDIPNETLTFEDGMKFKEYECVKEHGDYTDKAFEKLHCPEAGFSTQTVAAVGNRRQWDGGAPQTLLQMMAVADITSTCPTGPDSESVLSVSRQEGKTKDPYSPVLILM
Kind of experiment: Selectivity interaction (KinomeScan (DiscoverX)) EUB0001049a NEK5. Particulars: at 1 µM.

The target in another experiment is Histamine H1 receptor (Homo sapiens, UniProt P35367). Kind of experiment: Selectivity interaction (Panel of kinases, GPCRs, ion channels and transporters (enzymatic assay)) EUB0000223bCl HRH1.
The target in experiment [8] is Serine/threonine-protein kinase Nek6 (Homo sapiens) (UniProt Q9HC98). The experiment can be described thus: Selectivity interaction (KinomeScan (DiscoverX)) EUB0001079a NEK6. Particulars: at 1 µM.
Experiment [9] deals with T4, Calcium/calmodulin-dependent protein kinase type IV (Homo sapiens) (UniProt Q16566).
T4 sequence (whole entry): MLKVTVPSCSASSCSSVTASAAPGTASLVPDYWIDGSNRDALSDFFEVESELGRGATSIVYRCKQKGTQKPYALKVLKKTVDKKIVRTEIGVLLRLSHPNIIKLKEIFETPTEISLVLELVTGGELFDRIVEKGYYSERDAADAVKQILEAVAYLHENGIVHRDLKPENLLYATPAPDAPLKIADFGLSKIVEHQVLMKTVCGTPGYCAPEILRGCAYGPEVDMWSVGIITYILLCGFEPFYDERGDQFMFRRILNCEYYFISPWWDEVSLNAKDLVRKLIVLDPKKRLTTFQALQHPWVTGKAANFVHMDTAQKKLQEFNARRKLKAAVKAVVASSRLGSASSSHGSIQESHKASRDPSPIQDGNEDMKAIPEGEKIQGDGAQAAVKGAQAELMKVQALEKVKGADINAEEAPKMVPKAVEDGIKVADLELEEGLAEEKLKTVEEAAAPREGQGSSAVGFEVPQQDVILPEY
The experiment can be described thus: Selectivity interaction (Millipore kinase profiler) EUB0000124b CAMK4. The note with it: at 10 µM.

SMILES strings stand for the structures.

Chain of Tyrosine-protein kinase Fer (Homo sapiens) (P16591 whole entry, looked up): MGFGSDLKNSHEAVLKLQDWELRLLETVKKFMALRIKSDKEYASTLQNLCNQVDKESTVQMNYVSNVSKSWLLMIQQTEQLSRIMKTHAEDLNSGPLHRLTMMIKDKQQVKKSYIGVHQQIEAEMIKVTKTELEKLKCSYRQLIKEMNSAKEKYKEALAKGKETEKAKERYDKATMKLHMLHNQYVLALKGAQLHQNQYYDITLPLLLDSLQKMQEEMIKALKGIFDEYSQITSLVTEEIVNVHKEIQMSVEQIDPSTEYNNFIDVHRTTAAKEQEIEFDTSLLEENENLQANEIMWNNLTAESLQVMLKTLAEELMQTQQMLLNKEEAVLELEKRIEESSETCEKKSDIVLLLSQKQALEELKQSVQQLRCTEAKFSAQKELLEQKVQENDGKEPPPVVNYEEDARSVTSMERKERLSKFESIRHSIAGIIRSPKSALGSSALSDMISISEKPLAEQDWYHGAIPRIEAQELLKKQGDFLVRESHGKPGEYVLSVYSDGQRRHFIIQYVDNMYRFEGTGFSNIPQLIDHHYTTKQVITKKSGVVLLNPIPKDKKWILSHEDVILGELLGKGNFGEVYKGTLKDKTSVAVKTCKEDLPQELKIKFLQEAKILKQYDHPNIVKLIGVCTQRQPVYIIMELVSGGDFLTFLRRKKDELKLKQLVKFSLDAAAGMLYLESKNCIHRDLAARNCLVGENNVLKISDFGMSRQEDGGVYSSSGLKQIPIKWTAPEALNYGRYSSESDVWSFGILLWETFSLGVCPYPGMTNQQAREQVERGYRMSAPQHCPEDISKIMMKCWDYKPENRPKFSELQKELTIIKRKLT
Chain of Serine/threonine-protein kinase 26 (Q9P289 2-416 limits assumed): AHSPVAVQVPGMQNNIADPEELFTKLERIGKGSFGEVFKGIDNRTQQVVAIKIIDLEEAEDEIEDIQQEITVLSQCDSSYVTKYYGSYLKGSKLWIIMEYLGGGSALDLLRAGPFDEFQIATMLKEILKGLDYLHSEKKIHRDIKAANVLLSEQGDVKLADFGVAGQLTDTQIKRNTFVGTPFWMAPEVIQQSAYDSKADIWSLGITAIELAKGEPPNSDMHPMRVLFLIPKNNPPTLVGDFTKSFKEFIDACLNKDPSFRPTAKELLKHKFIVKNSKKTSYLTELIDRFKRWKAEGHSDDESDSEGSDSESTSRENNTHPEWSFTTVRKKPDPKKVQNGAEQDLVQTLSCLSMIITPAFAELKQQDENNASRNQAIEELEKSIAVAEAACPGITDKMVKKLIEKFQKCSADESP
Chain of Serine/threonine-protein kinase Nek6 (Homo sapiens) (Q9HC98 whole entry): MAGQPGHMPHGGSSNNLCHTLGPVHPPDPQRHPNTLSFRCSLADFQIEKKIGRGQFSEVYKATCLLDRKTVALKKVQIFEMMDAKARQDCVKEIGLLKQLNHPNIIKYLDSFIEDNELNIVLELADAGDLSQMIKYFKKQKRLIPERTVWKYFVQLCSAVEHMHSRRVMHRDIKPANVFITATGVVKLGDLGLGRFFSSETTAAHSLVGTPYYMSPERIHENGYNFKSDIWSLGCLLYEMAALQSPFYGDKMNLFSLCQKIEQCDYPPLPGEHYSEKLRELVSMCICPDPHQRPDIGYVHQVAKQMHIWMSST
Chain of Serine/threonine-protein kinase PAK 4 (O96013 whole entry, looked up): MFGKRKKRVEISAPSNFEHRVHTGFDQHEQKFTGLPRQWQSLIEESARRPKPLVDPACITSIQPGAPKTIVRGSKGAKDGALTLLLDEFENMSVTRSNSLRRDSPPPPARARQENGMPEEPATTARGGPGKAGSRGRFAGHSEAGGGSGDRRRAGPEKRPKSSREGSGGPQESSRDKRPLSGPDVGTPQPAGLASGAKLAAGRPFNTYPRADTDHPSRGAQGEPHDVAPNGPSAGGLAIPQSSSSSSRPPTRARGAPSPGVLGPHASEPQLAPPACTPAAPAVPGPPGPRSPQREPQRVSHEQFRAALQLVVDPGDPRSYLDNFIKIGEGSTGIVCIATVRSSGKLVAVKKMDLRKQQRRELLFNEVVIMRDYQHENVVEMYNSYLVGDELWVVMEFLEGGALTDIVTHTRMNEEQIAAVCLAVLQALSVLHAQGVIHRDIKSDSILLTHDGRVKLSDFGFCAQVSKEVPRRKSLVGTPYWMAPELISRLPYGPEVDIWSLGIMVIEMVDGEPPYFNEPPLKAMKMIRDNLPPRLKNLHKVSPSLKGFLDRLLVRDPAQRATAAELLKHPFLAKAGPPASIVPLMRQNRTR
Chain of MAP kinase-interacting serine/threonine-protein kinase 2 (Q9HBH9 whole entry, looked up): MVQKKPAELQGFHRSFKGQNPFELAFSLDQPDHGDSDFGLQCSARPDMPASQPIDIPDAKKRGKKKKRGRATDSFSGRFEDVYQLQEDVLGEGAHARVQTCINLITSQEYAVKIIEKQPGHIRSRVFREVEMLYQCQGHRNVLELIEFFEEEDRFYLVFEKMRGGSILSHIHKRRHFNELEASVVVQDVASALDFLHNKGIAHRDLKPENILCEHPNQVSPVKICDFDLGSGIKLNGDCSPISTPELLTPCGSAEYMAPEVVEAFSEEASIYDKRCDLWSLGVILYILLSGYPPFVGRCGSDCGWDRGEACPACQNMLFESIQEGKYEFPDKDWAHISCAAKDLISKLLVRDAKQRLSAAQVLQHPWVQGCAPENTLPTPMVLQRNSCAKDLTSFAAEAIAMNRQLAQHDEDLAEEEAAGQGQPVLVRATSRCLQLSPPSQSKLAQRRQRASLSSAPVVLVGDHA
Chain of Histamine H1 receptor (P35367 whole entry): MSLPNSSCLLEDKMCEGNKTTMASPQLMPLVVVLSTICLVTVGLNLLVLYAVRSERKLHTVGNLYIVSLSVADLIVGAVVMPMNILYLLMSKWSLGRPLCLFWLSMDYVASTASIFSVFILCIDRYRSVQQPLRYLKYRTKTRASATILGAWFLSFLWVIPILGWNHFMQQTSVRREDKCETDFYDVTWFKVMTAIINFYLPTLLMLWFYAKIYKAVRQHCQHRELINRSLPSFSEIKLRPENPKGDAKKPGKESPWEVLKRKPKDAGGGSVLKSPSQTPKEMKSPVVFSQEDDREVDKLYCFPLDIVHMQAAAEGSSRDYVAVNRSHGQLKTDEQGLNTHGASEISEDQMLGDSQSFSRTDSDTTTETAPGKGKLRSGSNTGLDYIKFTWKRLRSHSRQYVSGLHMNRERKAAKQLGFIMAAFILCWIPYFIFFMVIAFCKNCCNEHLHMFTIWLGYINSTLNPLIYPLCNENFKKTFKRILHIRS

As for `CCN(CC)CCCCNc1ncc2cc(-c3cc(OC)cc(OC)c3)c(NC(=O)NC(C)(C)C)nc2n1`, in experiment [1], the % of control was 100%.
With `CNC(=O)Nc1ccc(-c2nc(N3CC4CCC(C3)O4)c3cnn(C4CCC5(CC4)OCCO5)c3n2)cc1`, the % of control in [2] is 98%; in experiment [3], 70%.
With `Cc1cc([C@@H](C)Nc2ccccc2C(=O)O)c2nc(N3CCOCC3)cc(=O)n2c1` [AZD-6482], in experiment [4], the % of control came out at 100%.
Turning to `Cc1cnc(Nc2ccc(F)cc2Cl)nc1-c1c[nH]c(C(=O)N[C@H](CO)c2cccc(Cl)c2)c1`, the % of inhibition in [5] turned out to be 3%.
On to `C=CC(=O)Nc1cc(-n2c(=O)ccc3cnc4ccc(-c5ccc(NS(C)(=O)=O)cc5)cc4c32)ccc1C`, for which the % of control worked out at 27% in [6] (at 1 µM) and 4.2% in experiment [6] (at 10 µM).
Consider `COc1cc(Nc2nc(C)cc(-c3cnn4nc(OC)ccc34)n2)cc(C(F)(F)F)c1`, for which the % of control in experiment [7] was determined as 96%.
As to `COc1cc(C(=O)N2CC[C@@H](O)[C@@H](N)C2)cc2nc(-c3cc4ccccc4n3CC3CC3)n(C)c12`, at Histamine H1 receptor, the pXC50 was less than 4.4 M.
The compound `Nc1cnc(N2CCc3cc(S(=O)(=O)Nc4c(F)cc(Cl)cc4F)cc(N4CCCC4=O)c32)nc1` [TP-020n] had a % of control in [8] of 100%.
Turning to `CC(=O)Nc1cccc(-n2c(=O)n(C3CC3)c(=O)c3c(Nc4ccc(I)cc4F)n(C)c(=O)c(C)c32)c1`, the % of control in experiment [9] was found to be 97%.
